The values that follow come from PMC8320704 (Journal of medicinal chemistry, 2015).

The term IC50 denotes the concentration that inhibits the measured activity by half. A lower IC50 goes with higher potency.

For series [1], the target named is HIV-1 IN (3′-P) (Human immunodeficiency virus type 1 group M subtype B, UniProt P04585). The series is described as follows: HIV-1 IN gel-based assay, 3′-processing. Format: biochemical.
Series [2] concerns HIV-1(IIIB). The conditions noted are these: for SI = CC50/EC50: Table 1.
Series [3] addresses HIV-1 RT RNase H (Human immunodeficiency virus type 1 group M subtype B, UniProt P04585). The series can be described thus: HIV-1 RT RNase H inhibition. Format: biochemical.

`CCOC(=O)/C(O)=C/C(=O)c1cn(Cc2ccccc2)c2ccccc2c1=O` [10a, 4-[1-Phenylmethyl-4(1H)-quinolinon-3-yl]-2-hydroxy-4-oxo-2-butenoic Acid Ethyl Ester] came in with a 50% inhibitory concentration (IC50) in series [1] greater than 1000 µM. Besides, the “SI = CC50/EC50” value in series [2] is on record as greater than 50.
Take `CCOC(=O)/C(O)=C/C(=O)c1cn(Cc2ccc3ccccc3n2)c2ccccc2c1=O` [10aa, 2-Hydroxy-4-oxo-4-(4-oxo-1-(quinolin-2-ylmethyl)-1,4-dihydroquinolin-3-yl)but-2-enoic Acid Ethyl Ester]: the half-inhibitory concentration (IC50) in series [1] is greater than 1000 µM.
In the case of `CCOC(=O)/C(O)=C/C(=O)c1cn(Cc2ccccc2F)c2ccccc2c1=O` [10b, 4-[1-(2-Fluorophenyl)methyl-4(1H)-quinolinon-3-yl]-2-hydroxy-4-oxo-2-butenoic Acid Ethyl Ester], the “SI = CC50/EC50” value in series [2] was greater than 33.4.
Regarding `CCOC(=O)/C(O)=C/C(=O)c1cn(Cc2ccccc2OC)c2ccccc2c1=O` [10c, 4-[1-(2-Methoxyphenyl)methyl-4(1H)-quinolinon-3-yl]-2-hydroxy-4-oxo-2-butenoic Acid Ethyl Ester], the IC50 in series [1] is greater than 333 µM. The “SI = CC50/EC50” value in series [2] was greater than 19.2.
Consider `CCOC(=O)/C(O)=C/C(=O)c1cn(Cc2cccc(F)c2)c2ccccc2c1=O` [10d, 4-[1-(3-Fluorophenyl)methyl-4(1H)-quinolinon-3-yl]-2-hydroxy-4-oxo-2-butenoic Acid Ethyl Ester], for which the IC50 in series [1] is greater than 12.3 µM. Moreover, the “SI = CC50/EC50” value in series [2] is listed as greater than 29.4.
`CCOC(=O)/C(O)=C/C(=O)c1cn(Cc2cccc(OC)c2)c2ccccc2c1=O` [10e, 4-[1-(3-Methoxyphenyl)methyl-4(1H)-quinolinon-3-yl]-2-hydroxy-4-oxo-2-butenoic Acid Ethyl Ester] had a 50% inhibitory concentration (IC50) in series [1] greater than 333 µM.
Compound `CCOC(=O)/C(O)=C/C(=O)c1cn(Cc2ccc(O)cc2)c2ccccc2c1=O` [10g, 4-[1-(4-Hydroxyphenyl)methyl-4(1H)-quinolinon-3-yl]-2-hydroxy-4-oxo-2-butenoic Acid Ethyl Ester] yielded an IC50 in series [1] greater than 333 µM. Besides, the “SI = CC50/EC50” value in series [2] is greater than 1.6.
In the case of `CCOC(=O)/C(O)=C/C(=O)c1cn(Cc2ccc(F)cc2F)c2ccccc2c1=O` [10j, 4-[1-(2,4-Difluorophenyl)methyl-4(1H)-quinolinon-3-yl]-2-hydroxy-4-oxo-2-butenoic Acid Ethyl Ester], in series [2], the “selectivity index (SI)” value is greater than 86.2 and the “SI = CC50/EC50” value was greater than 86.2.
In series [1], `CCOC(=O)/C(O)=C/C(=O)c1cn(Cc2c(F)cccc2F)c2ccccc2c1=O` [10l, 4-[1-(2,6-Difluorophenyl)methyl-4(1H)-quinolinon-3-yl]-2-hydroxy-4-oxo-2-butenoic Acid Ethyl Ester] showed an IC50 greater than 12.3 µM. In addition, in series [2], the “selectivity index (SI)” value is greater than 250 and the “SI = CC50/EC50” value was greater than 250.
With `CCOC(=O)/C(O)=C/C(=O)c1cn(Cc2ccc(F)c(F)c2)c2ccccc2c1=O` [10m, 4-[1-(3,4-Difluorophenyl)methyl-4(1H)-quinolinon-3-yl]-2-hydroxy-4-oxo-2-butenoic Acid Ethyl Ester], in series [2], the “SI = CC50/EC50” value is on record as greater than 5.1.
For `CCOC(=O)/C(O)=C/C(=O)c1cn(Cc2cc(F)cc(F)c2)c2ccccc2c1=O` [10n, 4-[1-(3,5-Difluorophenyl)methyl-4(1H)-quinolinon-3-yl]-2-hydroxy-4-oxo-2-butenoic Acid Ethyl Ester], in series [2], the “SI = CC50/EC50” value was greater than 1.5.
For the compound `CCOC(=O)/C(O)=C/C(=O)c1cn(Cc2c(Cl)cccc2Cl)c2ccccc2c1=O` [10p, 4-[1-(2,6-Dichlorophenyl)methyl-4(1H)-quinolinon-3-yl]-2-hydroxy-4-oxo-2-butenoic Acid Ethyl Ester], the half-inhibitory concentration (IC50) in series [3] (RNase H IC50, Table 1) was greater than 50 µM. Also, the “SI = CC50/EC50” value in series [2] is greater than 1.7.
For `CCOC(=O)/C(O)=C/C(=O)c1cn(Cc2cccc(Cl)c2F)c2ccccc2c1=O` [10s, 4-[1-(3-Chloro-2-fluorophenyl)methyl-4(1H)-quinolinon-3-yl]-2-hydroxy-4-oxo-2-butenoic Acid Ethyl Ester], in series [2], the “SI = CC50/EC50” value is on record as greater than 5.
Same read-out and setting: to `CCOC(=O)/C(O)=C/C(=O)c1cn(Cc2ccc(F)c(Cl)c2)c2ccccc2c1=O` [10t, 4-[1-(3-Chloro-4-fluorophenyl)methyl-4(1H)-quinolinon-3-yl]-2-hydroxy-4-oxo-2-butenoic Acid Ethyl Ester] belongs greater than 2.9.
In series [1], `CCOC(=O)/C(O)=C/C(=O)c1cn(Cc2ccc(F)c(Cl)c2)c2c(Cl)cccc2c1=O` [10u, 8-Chloro-4-[1-(3-chloro-4-fluorophenyl)methyl-4(1H)-quinolinon-3-yl]-2-hydroxy-4-oxo-2-butenoic Acid Ethyl Ester] displayed a half-maximal inhibitory concentration (IC50) greater than 333 µM.
For the compound `CCOC(=O)/C(O)=C/C(=O)c1cn(Cc2ccccc2F)c2cc(Cl)ccc2c1=O` [10w, 4-[7-Chloro-1-(2-fluorophenyl)methyl-4(1H)-quinolinon-3-yl]-2-hydroxy-4-oxo-2-butenoic Acid Ethyl Ester], the “SI = CC50/EC50” value in series [2] is greater than 4.5.
`CCOC(=O)/C(O)=C/C(=O)c1cn(CCCCc2ccccc2)c2ccccc2c1=O` [10x, 2-Hydroxy-4-oxo-4-(4-oxo-1-(4-phenylbutyl)-1,4-dihydroquinolin-3-yl)but-2-enoic Acid Ethyl Ester] gave an IC50 in series [1] greater than 333 µM.
On the same count and under the same terms, to `CCOC(=O)/C(O)=C/C(=O)c1cn(Cc2ccc3ccccc3c2)c2ccccc2c1=O` [10y, 2-Hydroxy-4-(1-(naphthalen-2-ylmethyl)-4-oxo-1,4-dihydroquinolin-3-yl)-4-oxobut-2-enoic Acid Ethyl Ester] belongs greater than 333 µM; to `CCOC(=O)/C(O)=C/C(=O)c1cn(Cc2ccncc2)c2ccccc2c1=O` [10z, 2-Hydroxy-4-oxo-4-(4-oxo-1-(pyridin-4-ylmethyl)-1,4-dihydroquinolin-3-yl)but-2-enoic Acid Ethyl Ester], greater than 333 µM.
Regarding `O=C(O)/C(O)=C/C(=O)c1cn(Cc2ccccc2F)c2ccccc2c1=O` [11b, 4-[1-(2-Fluorophenyl)methyl-4(1H)-quinolinon-3-yl]-2-hydroxy-4-oxo-2-butenoic Acid], in series [3] (RNase H IC50, Table 1), the IC50 was greater than 50 µM. Moreover, the “SI = CC50/EC50” value in series [2] was greater than 19.2.
`COc1ccccc1Cn1cc(C(=O)/C=C(\O)C(=O)O)c(=O)c2ccccc21` [11c, 4-[1-(2-Methoxyphenyl)methyl-4(1H)-quinolinon-3-yl]-2-hydroxy-4-oxo-2-butenoic Acid] gave a concentration for half-maximal inhibition (IC50) in series [1] greater than 4.1 µM. Also, in series [2], the “SI = CC50/EC50” value was greater than 5.4.
In the case of `O=C(O)/C(O)=C/C(=O)c1cn(Cc2cccc(F)c2)c2ccccc2c1=O` [11d, 4-[1-(3-Fluorophenyl)methyl-4(1H)-quinolinon-3-yl]-2-hydroxy-4-oxo-2-butenoic Acid], the “SI = CC50/EC50” value in series [2] is given as greater than 1.8.
As to `COc1cccc(Cn2cc(C(=O)/C=C(\O)C(=O)O)c(=O)c3ccccc32)c1` [11e, 4-[1-(3-Methoxyphenyl)methyl-4(1H)-quinolinon-3-yl]-2-hydroxy-4-oxo-2-butenoic Acid], the half-inhibitory concentration (IC50) in series [1] is greater than 4.1 µM.
Regarding `O=C(O)/C(O)=C/C(=O)c1cn(Cc2ccc(Cl)cc2)c2ccccc2c1=O` [11f, 4-[1-(4-Chlorophenyl)methyl-4(1H)-quinolinon-3-yl]-2-hydroxy-4-oxo-2-butenoic Acid], in series [3] (RNase H IC50, Table 1), the IC50 is greater than 50 µM. For the same compound, in series [2], the “selectivity index (SI)” value was greater than 57.5 and the “SI = CC50/EC50” value is greater than 57.5.
Regarding `COc1ccc(Cn2cc(C(=O)/C=C(\O)C(=O)O)c(=O)c3ccccc32)cc1` [11h, 4-[1-(4-Methoxyphenyl)methyl-4(1H)-quinolinon-3-yl]-2-hydroxy-4-oxo-2-butenoic Acid], the concentration for half-maximal inhibition (IC50) in series [3] (RNase H IC50, Table 1) is greater than 50 µM.
Take `O=C(O)/C(O)=C/C(=O)c1cn(Cc2ccc(F)cc2F)c2ccccc2c1=O` [11j, 4-[1-(2,4-Difluorophenyl)methyl-4(1H)-quinolinon-3-yl]-2-hydroxy-4-oxo-2-butenoic Acid]: the “SI = CC50/EC50” value in series [2] is reported as greater than 3.6.
With `O=C(O)/C(O)=C/C(=O)c1cn(Cc2cc(F)ccc2F)c2ccccc2c1=O` [11k, 4-[1-(2,5-Difluorophenyl)methyl-4(1H)-quinolinon-3-yl]-2-hydroxy-4-oxo-2-butenoic Acid], in series [3] (RNase H IC50, Table 1), the 50% inhibitory concentration (IC50) is greater than 50 µM.
In series [3] (RNase H IC50, text), `O=C(O)/C(O)=C/C(=O)c1cn(Cc2c(F)cccc2F)c2ccccc2c1=O` [11l, 4-[1-(2,6-Difluorophenyl)methyl-4(1H)-quinolinon-3-yl]-2-hydroxy-4-oxo-2-butenoic Acid] showed an IC50 of roughly 10 µM. Further, the “SI = CC50/EC50” value in series [2] is greater than 6.2.
In series [3] (RNase H IC50, Table 1), `O=C(O)/C(O)=C/C(=O)c1cn(Cc2ccc(F)c(F)c2)c2ccccc2c1=O` [11m, 4-[1-(3,4-Difluorophenyl)methyl-4(1H)-quinolinon-3-yl]-2-hydroxy-4-oxo-2-butenoic Acid] gave an IC50 greater than 50 µM. Moreover, in series [2], the “SI = CC50/EC50” value is recorded as greater than 3.1.
As for `O=C(O)/C(O)=C/C(=O)c1cn(Cc2cc(F)cc(F)c2)c2ccccc2c1=O` [11n, 4-[1-(3,5-Difluorophenyl)methyl-4(1H)-quinolinon-3-yl]-2-hydroxy-4-oxo-2-butenoic Acid], the half-maximal inhibitory concentration (IC50) in series [3] (RNase H IC50, Table 1) is greater than 50 µM.
With `O=C(O)/C(O)=C/C(=O)c1cn(Cc2cccc(Cl)c2F)c2ccccc2c1=O` [11s, 4-[1-(3-Chloro-2-fluorophenyl)methyl-4(1H)-quinolinon-3-yl]-2-hydroxy-4-oxo-2-butenoic Acid], in series [2], the “SI = CC50/EC50” value is listed as greater than 2.1.
In series [3] (RNase H IC50, Table 1), `O=C(O)/C(O)=C/C(=O)c1cn(Cc2ccccc2F)c2c(Cl)cccc2c1=O` [11v, 8-Chloro-4-[1-(2-fluorophenyl)methyl-4(1H)-quinolinon-3-yl]-2-hydroxy-4-oxo-2-butenoic Acid] registered an IC50 greater than 50 µM.
In the case of `O=C(O)/C(O)=C/C(=O)c1cn(Cc2ccccc2F)c2cc(Cl)ccc2c1=O` [11w, 4-[7-Chloro-1-(2-fluorophenyl)methyl-4(1H)-quinolinon-3-yl]-2-hydroxy-4-oxo-2-butenoic Acid], in series [2], the “SI = CC50/EC50” value was greater than 2.9.
`O=C(O)/C(O)=C/C(=O)c1cn(Cc2ccncc2)c2ccccc2c1=O` [11z, 2-Hydroxy-4-oxo-4-(4-oxo-1-(pyridin-4-ylmethyl)-1,4-dihydroquinolin-3-yl)but-2-enoic Acid] showed a 50% inhibitory concentration (IC50) in series [1] greater than 1000 µM.
